“And” between values parts separate entries of the source, which are not always exact repeats. Identical values can stand only once.
What was measured:
human TRPM8 = human TRPM8 (Homo sapiens, UniProt Q7Z2W7); experiment: FLIPR intracellular calcium flux (Fluo-4) in HEK cells stably transfected with human TRPM8; settings: HEK cells with human TRPM8
panelists = experiment: Sensory evaluation of cooling sensation after brushing with coolant dentifrice followed by aqueous rinse with or without calcium; type: in vivo, human; design: key to Cooling Sensation Score: 0 = no cooling, 60 = intense cooling; 7.5 = definite cooling; settings: for Cooling Sensation Score: 0-60 scale
Description: Sensory evaluation studies of coolant activity were conducted using a methodology patterned after the techniques described in M. C. Meilgaard, et al., Sensory Evaluation Techniques, 4th Ed. (2007). In one study, a panel of 11 trained sensory experts evaluated cooling sensation experienced after brushing with a dentifrice containing coolant(s) followed by rinsing with an aqueous rinse containing a calcium ion source. Panelists brushed teeth with 1.5 grams of a test dentifrice (containing coolant) or control (no coolant) and then expectorated. After brush expectoration, panelists evaluated cooling intensity, assigning a number between 0 (no cooling) to 60 (intense cooling). Panelists then rinsed mouth with 15 ml. of an aqueous rinse (with or without calcium) and expectorated. After rinse expectoration, panelists evaluated cooling intensity according to the same 0 to 60 scale. Evaluations were conducted at 5, 15, 30, 45, 60 minute, etc. time points. At each evaluation, panelists were instructed to breathe in through pursed lips and evaluate overall cooling sensation. In this test, a numerical score of 7.5 indicates meaningful or definite cooling.

[1] = concentration where the cooling effect could be clearly recognized; cited from earlier work

Chain of human TRPM8 (Q7Z2W7 whole entry): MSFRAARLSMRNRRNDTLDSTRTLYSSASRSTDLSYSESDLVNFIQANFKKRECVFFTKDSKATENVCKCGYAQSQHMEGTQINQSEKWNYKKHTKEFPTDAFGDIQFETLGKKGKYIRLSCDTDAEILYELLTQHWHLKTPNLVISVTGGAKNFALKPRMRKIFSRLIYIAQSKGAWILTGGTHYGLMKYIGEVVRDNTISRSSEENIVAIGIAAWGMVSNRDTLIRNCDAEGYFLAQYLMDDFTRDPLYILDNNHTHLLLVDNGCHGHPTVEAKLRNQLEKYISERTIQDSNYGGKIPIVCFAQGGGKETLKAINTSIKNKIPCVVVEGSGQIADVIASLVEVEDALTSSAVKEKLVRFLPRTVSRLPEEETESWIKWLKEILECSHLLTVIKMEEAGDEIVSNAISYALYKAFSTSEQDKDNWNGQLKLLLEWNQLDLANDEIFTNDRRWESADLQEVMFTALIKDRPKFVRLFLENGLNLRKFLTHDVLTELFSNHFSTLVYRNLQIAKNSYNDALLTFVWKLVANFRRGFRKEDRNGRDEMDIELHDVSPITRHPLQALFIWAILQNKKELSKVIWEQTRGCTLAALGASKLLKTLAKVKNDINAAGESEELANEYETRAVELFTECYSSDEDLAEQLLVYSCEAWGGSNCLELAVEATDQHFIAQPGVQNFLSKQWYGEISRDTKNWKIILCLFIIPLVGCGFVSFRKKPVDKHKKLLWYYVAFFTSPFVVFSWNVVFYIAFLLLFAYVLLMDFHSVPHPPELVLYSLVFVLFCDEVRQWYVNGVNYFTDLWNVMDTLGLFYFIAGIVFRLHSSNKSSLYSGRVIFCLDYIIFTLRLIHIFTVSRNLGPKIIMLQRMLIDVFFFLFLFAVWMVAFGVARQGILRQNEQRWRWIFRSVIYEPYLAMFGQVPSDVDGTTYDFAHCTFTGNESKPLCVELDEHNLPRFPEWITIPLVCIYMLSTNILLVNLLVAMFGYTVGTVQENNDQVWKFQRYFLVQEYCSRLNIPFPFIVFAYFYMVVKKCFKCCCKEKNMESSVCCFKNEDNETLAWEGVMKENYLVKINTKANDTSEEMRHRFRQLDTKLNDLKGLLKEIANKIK

Question: For CC1CCC(C(C)C)C(C(=O)Nc2ccc(CC#N)cc2)C1 (stereo not drawn) [Composition G-180, N-(4-cyanomethylphenyl)-ρ-menthanecarboxamide], which “Average Fluorescence (n = 3)” value (human TRPM8; 6.25 uM G-180 alone, Fluo-4) is on record?
Answer: 14901.88 and 17511.73 and 17474.37

Question: And the “Activation of the TRPM8 receptor (calcium ion flux vs. control)” value (human TRPM8; 6.25 uM)?
Answer: activated the TRPM8 receptor

Question: And the “Cooling Sensation Score” value (panelists; 75 ppm coolant in paste, rinse Ca+2 0 ppm, 0 min.)?
Answer: 21.1

Question: And the “Cooling Sensation Score” value (panelists; 75 ppm coolant in paste, rinse Ca+2 0 ppm, 5 min.)?
Answer: 23.7

Question: And the “Cooling Sensation Score” value (panelists; 75 ppm coolant in paste, rinse Ca+2 0 ppm, 15 min.)?
Answer: 22.9

Question: And the “Cooling Sensation Score” value (panelists; 75 ppm coolant in paste, rinse Ca+2 0 ppm, 30 min.)?
Answer: 15.0

Question: What about the “Cooling Sensation Score” value (panelists; 75 ppm coolant in paste, rinse Ca+2 0 ppm, 45 min.) of the same compound?
Answer: 11.0

Question: And the “Cooling Sensation Score” value (panelists; 75 ppm coolant in paste, rinse Ca+2 0 ppm, 60 min.)?
Answer: 5.8

Question: What about the “Cooling Sensation Score” value (panelists; 75 ppm coolant in paste, rinse Ca+2 271 ppm, 0 min.) of the same compound?
Answer: 17.5

Question: What about the “Cooling Sensation Score” value (panelists; 75 ppm coolant in paste, rinse Ca+2 271 ppm, 5 min.) of the same compound?
Answer: 18.3

Question: What about the “Cooling Sensation Score” value (panelists; 75 ppm coolant in paste, rinse Ca+2 271 ppm, 15 min.) of the same compound?
Answer: 20.7

Question: And the “Cooling Sensation Score” value (panelists; 75 ppm coolant in paste, rinse Ca+2 271 ppm, 30 min.)?
Answer: 16.8

Question: And the “Cooling Sensation Score” value (panelists; 75 ppm coolant in paste, rinse Ca+2 271 ppm, 45 min.)?
Answer: 13.3

Question: And the “Cooling Sensation Score” value (panelists; 75 ppm coolant in paste, rinse Ca+2 271 ppm, 60 min.)?
Answer: 8.4

Question: And the “Cooling Sensation Score” value (panelists; 75 ppm coolant in paste, rinse Ca+2 542 ppm, 0 min.)?
Answer: 18.8

Question: What about the “Cooling Sensation Score” value (panelists; 75 ppm coolant in paste, rinse Ca+2 542 ppm, 5 min.) of the same compound?
Answer: 25.0

Question: And the “Cooling Sensation Score” value (panelists; 75 ppm coolant in paste, rinse Ca+2 542 ppm, 15 min.)?
Answer: 29.2

Question: And the “Cooling Sensation Score” value (panelists; 75 ppm coolant in paste, rinse Ca+2 542 ppm, 30 min.)?
Answer: 24.4

Question: What about the “Cooling Sensation Score” value (panelists; 75 ppm coolant in paste, rinse Ca+2 542 ppm, 45 min.) of the same compound?
Answer: 18.6

Question: And the “Cooling Sensation Score” value (panelists; 75 ppm coolant in paste, rinse Ca+2 542 ppm, 60 min.)?
Answer: 14.1

Question: And the “Cooling Sensation Score” value (panelists; 150 ppm coolant in paste, rinse Ca+2 0 ppm, 0 min.)?
Answer: 16.7

Question: And the “Cooling Sensation Score” value (panelists; 150 ppm coolant in paste, rinse Ca+2 0 ppm, 5 min.)?
Answer: 16.0

Question: What about the “Cooling Sensation Score” value (panelists; 150 ppm coolant in paste, rinse Ca+2 0 ppm, 15 min.) of the same compound?
Answer: 25.7

Question: What about the “Cooling Sensation Score” value (panelists; 150 ppm coolant in paste, rinse Ca+2 0 ppm, 30 min.) of the same compound?
Answer: 19.5

Question: What about the “Cooling Sensation Score” value (panelists; 150 ppm coolant in paste, rinse Ca+2 0 ppm, 45 min.) of the same compound?
Answer: 10.0

Question: And the “Cooling Sensation Score” value (panelists; 150 ppm coolant in paste, rinse Ca+2 0 ppm, 60 min.)?
Answer: 1.5

Question: And the “Cooling Sensation Score” value (panelists; 150 ppm coolant in paste, rinse Ca+2 271 ppm, 0 min.)?
Answer: 12.1

Question: And the “Cooling Sensation Score” value (panelists; 150 ppm coolant in paste, rinse Ca+2 271 ppm, 5 min.)?
Answer: 22.5

Question: What about the “Cooling Sensation Score” value (panelists; 150 ppm coolant in paste, rinse Ca+2 271 ppm, 15 min.) of the same compound?
Answer: 26.0

Question: What about the “Cooling Sensation Score” value (panelists; 150 ppm coolant in paste, rinse Ca+2 271 ppm, 30 min.) of the same compound?
Answer: 17.1

Question: What about the “Cooling Sensation Score” value (panelists; 150 ppm coolant in paste, rinse Ca+2 271 ppm, 45 min.) of the same compound?
Answer: 11.2

Question: And the “Cooling Sensation Score” value (panelists; 150 ppm coolant in paste, rinse Ca+2 271 ppm, 60 min.)?
Answer: 0

Question: And the “Cooling Sensation Score” value (panelists; 150 ppm coolant in paste, rinse Ca+2 542 ppm, 0 min.)?
Answer: 15.1

Question: What about the “Cooling Sensation Score” value (panelists; 150 ppm coolant in paste, rinse Ca+2 542 ppm, 5 min.) of the same compound?
Answer: 21.9

Question: What about the “Cooling Sensation Score” value (panelists; 150 ppm coolant in paste, rinse Ca+2 542 ppm, 15 min.) of the same compound?
Answer: 27.2

Question: What about the “Cooling Sensation Score” value (panelists; 150 ppm coolant in paste, rinse Ca+2 542 ppm, 30 min.) of the same compound?
Answer: 24.8

Question: And the “Cooling Sensation Score” value (panelists; 150 ppm coolant in paste, rinse Ca+2 542 ppm, 45 min.)?
Answer: 18.2

Question: What about the “Cooling Sensation Score” value (panelists; 150 ppm coolant in paste, rinse Ca+2 542 ppm, 60 min.) of the same compound?
Answer: 8.0

Question: What about the “Potentiating effect of calcium ions on cooling intensity and duration” value (panelists; at the levels of coolant and calcium used) of the same compound?
Answer: particularly evident

Question: What about the “Duration of cooling with calcium” value (panelists; dentifrice followed by calcium rinse) of the same compound?
Answer: up to 60 minutes

Question: What about the “Sensation described by panelists” value (panelists; particularly when used at higher levels) of the same compound?
Answer: “burning” sensation

Question: With CC1CCC(C(C)C)C(O)C1 (stereo not drawn) [Menthol, menthol] as the compound, how does the Cooling threshold [1] read?
Answer: about 800 ppb

Question: And the “Cooling Sensation Score” value (panelists; 1500 ppm coolant in paste, rinse Ca+2 542 ppm, 0 min.)?
Answer: 18.0

Question: What about the “Cooling Sensation Score” value (panelists; 1500 ppm coolant in paste, rinse Ca+2 542 ppm, 5 min.) of the same compound?
Answer: 17.5

Question: And the “Cooling Sensation Score” value (panelists; 1500 ppm coolant in paste, rinse Ca+2 542 ppm, 15 min.)?
Answer: 4.4

Question: And the “Cooling Sensation Score” value (panelists; 1500 ppm coolant in paste, rinse Ca+2 542 ppm, 30 min.)?
Answer: 0

Question: And the “Cooling Sensation Score” value (panelists; 1500 ppm coolant in paste, rinse Ca+2 542 ppm, 45 min.)?
Answer: 0

Question: And the “Cooling Sensation Score” value (panelists; 1500 ppm coolant in paste, rinse Ca+2 542 ppm, 60 min.)?
Answer: 0

Question: What about the “Calcium enhancing effect on cooling” value (panelists; 1500 ppm level of coolant in dentifrice) of the same compound?
Answer: calcium enhancing effect was not observed

Question: Which Cooling threshold [1] does the source give for CC(C)[C@@H]1CC[C@@H](C)C[C@@H]1O [d-neomenthol] here?
Answer: about 25,000 ppb

Question: For CC(C)[C@H]1CC[C@H](C)C[C@H]1O [l-neomenthol], which Cooling threshold [1] is on record?
Answer: about 3,000 ppb

From patent publication US9918915B2, “Personal care compositions providing enhanced cooling sensation” (THE PROCTER & GAMBLE COMPANY, priority 2007, dated 2018)
